We go through one compound from article PMC4627284, “High-throughput simultaneous screen and counterscreen identifies homoharringtonine as synthetic lethal with von Hippel-Lindau loss in renal cell carcinoma” (Oncotarget, 2015).

For data set [1], the system named is VHL-deficient 786-O cells. Briefly: High-throughput simultaneous screen and counterscreen, 1:1 mix of EV^GFP and VHL^mCh 786-O cells, fluorescence imaging. In kind it is cell-based, human. The note with it: library at 5 μM, 48 hours, in the presence of 2 nM rapamycin. The text has this: To identify small molecule compounds synthetic lethal with VHL, we carried out an unbiased cell-based screen of a chemical library of ~12,800 compounds using 786-O cells, an extensively studied cell line derived from a VHL-deficient primary human ccRCC [26]. 786-O cells were stably transfected with either an empty vector (EV) control or reconstituted with an HA-tagged VHL cDNA. […] To distinguish between the two otherwise isogenic cell lines, we transduced the VHL-deficient 786-O cells with a histone H2B-GFP reporter and the VHL-reconstituted cells with an H2B-mCherry reporter. The histone proteins drive the fluorochrome to nuclei facilitating cell identification and segmentation algorithms (Figure 1A and 1B). […]
Figure 1 Screening strategy to identify compounds that are synthetic lethal with VHL A. Schematic diagram of a ~12,800 chemical library synthetic lethal screen. […] Fluorescence imaging (using the BD Pathway 855 imager) was used to identify compounds preferentially depleting VHL-deficient/GFP-positive cells after cells were segmented. B. Left panel: Representative image of fluorescence signal from Hoescht-labeled 786-O cells. Right panel: overlay of GFP fluorescence signal (green; from 786-O EV^GFP cells) and mCherry fluorescence nuclear signal (red; VHL^mCh cells). […] Toxicity was determined as ≤100 VHL^mCh cells per field. […]
(The purpose of a counterscreen is to sort out artefacts and off-target activity.)

A further data set relates to XP26 tumorgraft line. The experiment in a line: ccRCC tumorgraft model, line XP26. The note with it: 0.7 mg/kg by gavage twice daily. The format is in vivo, NOD/SCID mice. Here is the method: (§1) We selected 6 independently-derived ccRCC tumorgraft lines that were confirmed to have VHL mutation. The mice (3-5 mice per tumorgraft line) were treated with either HHT (0.7 mg/kg), vehicle (as a negative control), or rapamycin (0.5 mg/kg; as a positive control). In total, 65 tumorgraft bearing mice were evaluated for these experiments in time courses lasting ~28 days, with tumor growth measured every 3 or 4 days.
(§2) Figure 3 HHT inhibits tumor growth in a ccRCC tumorgraft model A-F, Tumorgraft lines were treated with vehicle control, HHT (0.7 mg/kg), rapamycin (0.5 mg/kg), (or the combination, where indicated) and tumor growth was measured on the indicated days. Day 0 represents the first day of treatment.
(§3) Tumorgrafts were generated and propagated as described previously, with tumor samples implanted subcutaneously into the flank of the mouse for drug trials. Briefly, 4- to 8-week-old NOD/SCID mice were anesthetized with isoflurane and implanted subcutaneously with 64 mm^3 tumor fragments (cohorts 2-20). Once tumors reached an average of at least ~250 mm^3, drug treatment was begun. […] Tumor size (volume) was measured twice weekly and was obtained by multiplying tumor length, width, and depth using calipers. To assess toxicity, mouse weight was monitored once weekly.

Data set [2] concerns VHL-deficient 786-O cells. The experiment in a line: Cell death by trypan blue exclusion assay. In kind it is cell-based, human. The note with it: 36 hours. Here is the method:
(§4) Figure 2 Homoharringtonine (HHT) preferentially induces cell death in VHL-deficient 786-O cells A. 786-O cells with VHL mutation (green) or with VHL-reconstituted (red) were treated with different concentrations of HHT (0, 25, 50, or 100 nM) for 0, 6, 12, 24, 36, or 48 hours, and cell death was measured by trypan blue exclusion assay (n = 3 for each concentration and time point; *p < 0.05, **p < 0.001, ***p < 0.0001 between 786-O EV cells and 786-O with VHL reconstituted at the same concentration and time point). B. Western blot analysis of 786-O EV^GFP (EV) or VHL^mCh (VHL) cells treated with 100 nM HHT for 0, 3, 6, 12, or 24 hours. Blots were probed for Bcl-xL and Caspase 9, and α-Tubulin as loading control. Arrow indicates the cleaved Caspase 9 product.

Data set [3] has as its system VHL-reconstituted 786-O cells. The experiment in a line: Cell death by trypan blue exclusion assay. The note with it: 36 hours. In kind it is cell-based, human. Here is the method:
as §4

The next data set has as its system XP144 tumorgraft line. Briefly: ccRCC tumorgraft model, line XP144. The format is in vivo, NOD/SCID mice. The note with it: 0.7 mg/kg by gavage twice daily. How it is done: as §1, §2, §3
Data set [4] is described as follows: Toxicity in tumorgraft-bearing mice (mouse weight, signs). The note with it: 0.7 mg/kg by gavage twice daily, XP26 and XP144 cohorts. The format is in vivo. From the text:
C. and D. Average weight of XP26 and XP144 cohort mice in grams (g) taken at the indicated days prior to and over the course of the indicated drug treatment. Day 0 represents the first day of treatment.
Tumorgrafts were generated and propagated as described previously, with tumor samples implanted subcutaneously into the flank of the mouse for drug trials. Briefly, 4- to 8-week-old NOD/SCID mice were anesthetized with isoflurane and implanted subcutaneously with 64 mm^3 tumor fragments (cohorts 2-20). Once tumors reached an average of at least ~250 mm^3, drug treatment was begun. The mice were treated with vehicle, 0.7 mg/kg homoharringtonine (HHT) via gavage twice daily, or 0.5 mg/kg rapamycin given by IP injection once every 48 hours. Tumor size (volume) was measured twice weekly and was obtained by multiplying tumor length, width, and depth using calipers. To assess toxicity, mouse weight was monitored once weekly.

For data set [5] the following is noted: cited from earlier work.

As to `COC(=O)C[C@](O)(CCCC(C)(C)O)C(=O)O[C@@H]1C(OC)=C[C@]23CCCN2CCc2cc4c(cc2[C@H]13)OCO4` [HHT, homoharringtonine], the “synthetic lethality with VHL in the screen” value in data set [1] is listed as “synthetic lethal compound effective against VHL-deficient ccRCC cells”. Further, the results for the “tumor weight smaller than vehicle-treated” value with XP26 tumorgraft line and in the data set with XP144 tumorgraft line were 56% and 32%, respectively. The “tumor growth inhibition (tumor volume) vs vehicle” value with XP26 tumorgraft line (~28 days) is reported as 63.7%; in the data set with XP144 tumorgraft line (~28 days), 43.0%. Further, the VHL-deficient cells killed in data set [2] (50 nM) is recorded as 30-40%. Besides, the “dead VHL-deficient cells” value in data set [2] (100 nM) is on record as 50-60%. Further, the VHL-reconstituted cells dead in data set [3] (50 nM) is listed as under 10%. Moreover, the “dead VHL-reconstituted cells” value in data set [3] (100 nM) is on record as “less than 25%”. The “body weight of treated mice” value in data set [4] is on record as “maintained similar body weight compared to controls”. Also, in data set [5] (dosed subcutaneously), the half-life in humans is 7 h. Moreover, the “plasma concentration reached in patients” value in data set [5] (treatment of CML) is ~ 50 nM.
